Results on five compounds are retold here after paper PMC10974275, “Pharmacokinetic Interaction of Kratom and Cannabidiol in Male Rats” (Pharmaceutics, 2024).

Data set [1] is described as follows: Single-dose pharmacokinetics of concomitant cannabidiol product and kratom product. Format: in vivo, male Sprague-Dawley rats. The following applies: for AUC(0-t): read-out: AUC0–24; for AUC0–∞/dose / CL/F / Vd/F: Single-Dose; for AUC0–∞/dose: dose-normalized; for CL/F / Vd/F: plasma; for CL/F: read-out: CL/F (apparent oral clearance) (converted); for Vd/F: read-out: V/F (apparent volume of distribution). How it is done:
(§1) Male Sprague-Dawley rats (weight 250 ± 25 g) were obtained from Envigo (Indianapolis, IN, USA) with indwelling jugular vein catheters. Animals were acclimated for ≥72 h in a temperature- and humidity-controlled vivarium on a 12 h light/dark cycle. All studies were approved by the University of Florida’s Institutional Animal Care and Use Committee (IACUC) and carried out in accordance with Association for Assessment and Accreditation of Laboratory Animal Care International (AAALAC) and National Institute of Health (NIH) guidelines. In the single-dose studies, rats were fasted for 10 h prior to dosing and an additional 2 h post-dose.
(§2) For the single-dose study, rats were pretreated with 50 mg/kg cannabidiol by oral gavage and, after 30 min, were dosed with 0.8 mL/kg OPMS Gold solution. A period of 30 min was observed between doses to reduce the likelihood of interactions between the formulations in the stomach. Rats were connected to an automatic blood collection system (BASi, West Lafayette, IN, USA), and blood samples were taken pre-kratom product dose and 0.08, 0.17, 0.25, 0.5, 1, 2, 3, 4, 6, 8, 12, 18, 24, 30, 36, 42, and 48 h after kratom product dose administration. For the multiple-dose study, rats were pretreated with 25 mg/kg cannabidiol and, after 30 min, were dosed with 0.4 mL/kg OPMS Gold solution every 12 h (0900 and 2100) for a period of 4 days. Blood samples were taken prior to the 0900 dose (24, 48, 72, 96 h). […] Plasma was separated from blood by centrifugation at 850× g for 10 min at 4 °C. Samples were stored at −20 °C until analysis.
(§3) Standards were prepared by adding 2.0 μL of CS or QC stock to 18 μL of blank rat plasma. This generated eight calibration standards (5–500 ng/mL) and four QC standards (5, 8, 200, and 400 ng/mL). After spiking, the standards were vortex-mixed for 5 min at 650 rpm. Analytes were precipitated with 80 μL methanol acidified with 0.05% formic acid containing 25 ng/mL IS-1 and IS-2 (Quenching Solution; QS). Samples were transferred to a 96-well filter plate and centrifuged at 850× g for 2 min at 4 °C. Study samples were prepared in the same manner by aliquoting 20 μL and adding 80 μL QS prior to vortex mixing and filtration.
(§4) Samples were analyzed using previously validated ultraperformance liquid chromatography-tandem mass spectrometry (UPLC-MS/MS) methods for the quantification of cannabinoids and alkaloids in rat plasma. Both methods used a Waters Acquity I-Class UPLC coupled to a Xevo TQ-S micro mass spectrometer (Waters, Milford, MA, USA). The source gas was nitrogen, and the collision gas was argon. The autosampler was maintained at 10 °C.
(§5) For the cannabinoid bioanalytical method, a 1.7 µm, 2.1 x 100 mm C18 BEH column was utilized with a pre-column of the same chemistry (Waters, Milford, MA, USA) held at 40 °C. […] Cannabidiol was detected in positive electrospray ionization mode using multiple reaction monitoring.
(§6) For the peak separations of kratom alkaloids required for quantification, a 1.7 µm, […] × 100 mm C18 BEH column with a pre-column of the same chemistry (Waters, Milford, MA, USA) was utilized and held at 50 °C throughout the analysis. A gradient elution was used with mobile phase of aqueous ammonium acetate buffer [2.5 mM, pH 3.5 (A)] and acetonitrile (B). The gradient was held at 90% A for 1 min and decreased to 60% by 10 min. From 10 to 10.5 min, the percent of A was decreased sharply to 30% and was then set to initial conditions from 10.5 to 11 min to re-equilibrate the column. The alkaloids were detected in positive electrospray ionization mode using multiple reaction monitoring.
The TargetLynx™ application of MassLynx™ was used for data processing and quantification of the UPLC-MS/MS data (Waters, Milford, MA, USA). Phoenix Version 6.4 (Certara, Princeton, NJ, USA) was used to perform a non-compartmental analysis of concentration–time data. GraphPad Prism Version 8 (GraphPad Software, San Diego, CA, USA) was used to generate all figures. […]

Details of data set [2]: method as in PMID 33620222. The conditions noted are these: n = 4, mean ± SEM, cited from earlier work.
The nature of data set [3]: Single oral dose pharmacokinetics of kratom product alone (control data from Kamble et al.). The following applies: without cannabidiol.
A short description of data set [4]: Multiple-dose (steady-state) pharmacokinetics of concomitant cannabidiol and kratom product. Format: in vivo, male Sprague-Dawley rats. The conditions noted are these: mean ± SEM; for Accumulation Index / Fluctuation / concentration at 5 days / AUC(0-inf) / AUC / Cmax at 5 days: 5-day q12 h oral 25 mg/kg cannabidiol and kratom product (Eq. 4.7 mg/kg mitragynine); for AUC0–∞/dose / CL/F at 5 days / Vd/F at 5 days: Multiple-Dose; for AUC0–∞/dose: dose-normalized; for concentration at 5 days / CL/F at 5 days / Vd/F at 5 days / AUC(0-inf) / AUC / Cmax at 5 days: male, Sprague-Dawley, rat; for concentration at 5 days / CL/F at 5 days / Vd/F at 5 days / AUC(0-inf) / AUC: plasma; for concentration at 5 days: oral; for CL/F at 5 days / Vd/F at 5 days: po; for CL/F at 5 days: read-out: CL/F (apparent oral clearance) (converted); for Vd/F at 5 days: read-out: V/F (apparent volume of distribution); for AUC(0-inf): from time 0 (96 h) extrapolated to infinity; for AUC: over the dosing interval (12 h); for Cmax at 5 days: maximum plasma concentration at steady-state. How it is done:
as §1, §2, §3, §4, §5, §6
The TargetLynx™ application of MassLynx™ was used for data processing and quantification of the UPLC-MS/MS data (Waters, Milford, MA, USA). Phoenix Version 6.4 (Certara, Princeton, NJ, USA) was used to perform a non-compartmental analysis of concentration–time data. GraphPad Prism Version 8 (GraphPad Software, San Diego, CA, USA) was used to generate all figures.

Data set [5] in a line: Single oral dose pharmacokinetics of cannabidiol product alone. The conditions noted are these: male, Sprague-Dawley, rat, cannabidiol in plasma, single oral dose of cannabidiol product alone (50 mg/kg), n = 4, mean ± SEM. It is filed as in vivo, male Sprague-Dawley rats.
Where [6] appears, read: male, Sprague-Dawley, rat, po, minor kratom alkaloid/metabolite in plasma, single concomitant dose of cannabidiol and kratom product, n = 5, mean ± SEM.
The mark [7] stands for this setting: male, Sprague-Dawley, rat, po, minor kratom alkaloid/metabolite in plasma, single concomitant dose of cannabidiol and kratom product, n = 5, mean ± SEM, read-out: Cmax.
The mark [8] stands for this setting: minor kratom alkaloid/metabolite in plasma, single oral dose of kratom product alone.
Where [9] appears, read: minor kratom alkaloid/metabolite in plasma, single concomitant dose of cannabidiol and kratom product, n = 5, mean ± SEM.
The mark [10] stands for this setting: male, Sprague-Dawley, rat, po, mean ± SEM.
Setting [11] is: male, Sprague-Dawley, rat, mitragynine in plasma, single concomitant oral dose of cannabidiol product (50 mg/kg) and kratom product (9.4 mg/kg mitragynine), n = 5, mean ± SEM.
Where [12] appears, read: average plasma concentration at steady-state, read-out: Cavg,ss.
Setting [13] is: minimum plasma concentration at steady-state, read-out: Cmin,ss.
The mark [14] stands for this setting: mitragynine in plasma, single oral dose of kratom product alone (9.6 mg/kg mitragynine).
The mark [15] stands for this setting: cannabidiol, cannabidiol plus kratom product vs cannabidiol product alone, single dose.
[16] abbreviates: male, Sprague-Dawley, rat, cannabidiol in plasma, single concomitant oral dose of cannabidiol product (50 mg/kg) and kratom product (9.4 mg/kg mitragynine), n = 5, mean ± SEM.

Read-outs that look alike come from different tables or passages of the source.

On to `C=C[C@H]1CN2CCc3c([nH]c4cccc(OC)c34)[C@@H]2C[C@@H]1/C(=C\OC)C(=O)OC` [Paynantheine, paynantheine], for which, in data set [1] (setting [6]), the Tmax (usually the time from dosing to the highest level) came to 16.2 ± 4.9 h and the AUC(0-t) came out at 290 ± 96.4 ng·h/mL. Moreover, in data set [1] (setting [7]), the Cmax – broadly, the highest concentration seen after dosing – stood at 19.8 ± 5.8 ng/mL. Also, in data set [2] (setting [8]), the maximum concentration (Cmax) is reported as 3.0 ± 1.7 ng/mL and the time of peak concentration (Tmax) was 0.08 ± 0.0 h.
For the compound `CC[C@@H]1CN2CC[C@@]3(O)C(=Nc4cccc(OC)c43)[C@@H]2C[C@@H]1/C(=C\OC)C(=O)OC` [7-hydroxymitragynine], the figures for the “AUC0–24” value in data set [1] (setting [9]) and in data set [2] (setting [8]) were 189.2 ± 27.7 ng·h/mL and 41.0 ± 7.6 ng·h/mL, respectively. In addition, the Cmax in data set [1] (setting [9]) is listed as 17.5 ± 2.3 ng/mL; in data set [2] (setting [8]), 4.0 ± 0.6 ng/mL. In addition, the “metabolite to parent (mitragynine) exposure ratio percent” value was 3.5% in data set [1] (with cannabidiol, single concomitant dose of cannabidiol and kratom product); 3.1% in data set [3]. Further, in data set [2] (setting [8]), the Tmax was 3.1 ± 1.7 h.
As to `CC[C@@H]1CN2CCc3c([nH]c4cccc(OC)c34)[C@@H]2C[C@@H]1/C(=C\OC)C(=O)OC` [Mitragynine, mitragynine], the “AUC0–∞/dose” value in data set [1] (mean ± SEM) was found to be 578.6 ± 187.9 ng·h/mL/mg/kg. In addition, in data set [1] (setting [10]), the CL/F was 38.3 mL/min/kg and the Vd/F turned out to be 25.8 ± 7.5 L/kg. Also, in data set [1] (setting [11]), the Tmax came to 17 ± 4.6 h and the AUC(0-t) was determined as 5350 ± 1150 ng·h/mL. Moreover, the Cmax in data set [1] (male, Sprague-Dawley, rat, mitragynine in plasma, single concomitant oral dose of cannabidiol product (50 mg/kg) and kratom product (9.4 mg/kg mitragynine), n = 5, mean ± SEM, read-out: Cmax) worked out at 253 ± 68.3 ng/mL. In addition, in data set [4], the “Accumulation Index” value is listed as 1.4 ± 0.1, the Fluctuation came out at 90.0 ± 11.3%, the “AUC0–∞/dose” value was 605.8 ± 153.1 ng·h/mL/mg/kg and the CL/F at 5 days was 51.7 mL/min/kg. In data set [4], the Vd/F at 5 days came out at 28.7 ± 3.7 L/kg; the AUC(0-inf) (in general, total exposure, with the tail of the curve extrapolated) was 2910 ± 735 ng·h/mL; the AUC (as a rule, concentration integrated over time) came to 1810 ± 417 ng·h/mL; the Cmax at 5 days turned out to be 218 ± 40 ng/mL. The same compound returned a Fluctuation in data set [4] (listed as mitragynine) of about 100%. For the same compound, in data set [4] (setting [12]), the concentration at 5 days is 151 ± 34.7 ng/mL. Moreover, in data set [4] (setting [13]), the concentration at 5 days stood at 91.1 ± 24.9 ng/mL. In addition, in data set [2] (setting [14]), the “AUC0–24” value is 1306.8 ± 126.1 ng·h/mL, the Cmax is 111.9 ± 15.6 ng/mL and the Tmax was 3.1 ± 1.7 h.
For `CC[C@@H]1CN2CCc3c([nH]c4cccc(OC)c34)[C@H]2C[C@@H]1/C(=C\OC)C(=O)OC` [Speciociliatine, speciociliatine], in data set [1] (setting [6]), the Tmax came to 17 ± 5.9 h and the AUC(0-t) is 990 ± 93.7 ng·h/mL. Moreover, the Cmax in data set [1] (setting [7]) came to 68.1 ± 5.9 ng/mL. Besides, in data set [2] (setting [8]), the “AUC0–24” value is 222.7 ± 22.2 ng·h/mL, the Cmax is given as 23.8 ± 1.4 ng/mL and the Tmax is 3.2 ± 1.6 h.
`C=C(C)[C@@H]1CCC(C)=C[C@H]1c1c(O)cc(CCCCC)cc1O` [Cannabidiol]: in data set [5], the Cmax was 589 ± 38.3 ng/mL and the Tmax came to 3.8 ± 1.5 h. Further, in data set [5] (read-out: AUC0–24), the AUC(0-t) was found to be 4400 ± 319 ng·h/mL. Also, the “AUC0–∞/dose” value in data set [1] (mean ± SEM) was determined as 97.8 ± 18.5 ng·h/mL/mg/kg. In data set [1] (setting [15]), the “AUC0–24 Fold Change (90% CI Ratio)” value is 1.0 (0.8, 1.1) and the “Cmax Fold Change (90% CI Ratio)” value was 0.8 (0.7, 0.9). Also, the “range of 90% confidence interval values of AUC0–24 fold change” value in data set [1] (cannabidiol, coadministration with kratom vs cannabidiol alone, single dose) is reported as 0.8–1.1. Also, in data set [1] (setting [10]), the CL/F was 192 mL/min/kg and the Vd/F was 164 ± 26.3 L/kg. Further, in data set [1] (setting [16]), the Tmax came to 6.3 ± 1 h and the AUC(0-t) was 4180 ± 614 ng·h/mL. Moreover, the Cmax in data set [1] (male, Sprague-Dawley, rat, cannabidiol in plasma, single concomitant oral dose of cannabidiol product (50 mg/kg) and kratom product (9.4 mg/kg mitragynine), n = 5, mean ± SEM, read-out: Cmax) was determined as 491 ± 69.2 ng/mL. In data set [4], the “Accumulation Index” value is given as 1.8 ± 0.0, the Fluctuation was 219.0 ± 42.7%, the “AUC0–∞/dose” value was found to be 140.8 ± 34.0 ng·h/mL/mg/kg and the CL/F at 5 days is 217 mL/min/kg. For the same compound, in data set [4], the Vd/F at 5 days came out at 192 ± 42.1 L/kg, the AUC(0-inf) was 3520 ± 851 ng·h/mL, the AUC came to 2450 ± 615 ng·h/mL and the Cmax at 5 days was 489 ± 96.2 ng/mL. Further, the concentration at 5 days in data set [4] (setting [12]) came out at 204 ± 51.3 ng/mL. Besides, the concentration at 5 days in data set [4] (setting [13]) was found to be 80.9 ± 23.7 ng/mL.
